Results from patent US20070128217A1 (priority 2003, published 2007).

Key:
[1] = system: control sera (pooled serum of ten healthy LUMC hospital workers; commercial negative donor pooled serum from the Dutch bloodbank); format: binding, human; parameters: Binding of Control serum LUMC to linear peptides / Binding of Control serum Blood-bank to linear peptides / Binding of Control serum LUMC to looped peptides / Binding of Control Serum Blood-Bank to Looped peptides / Binding of Control serum LUMC to linear peptides of the protein M of SARS-CoV Urbani / Binding of Control serum Blood-bank to linear peptides of the protein M of SARS-CoV Urbani / Binding of Control serum LUMC to looped peptides of the protein M of SARS-CoV Urbani / Binding of Control Serum Blood-Bank to Looped peptides of the protein M of SARS-CoV Urbani: unit not given here
[2] = system: rabbit serum obtained by immunizing a rabbit with the SARS-CoV strain Frankfurt 1; format: binding; parameters: Binding of a rabbit serum to linear peptides / Binding of a rabbit serum to looped peptides / Rabbit serum linear peptides / Rabbit serum looped peptides / Binding of a rabbit serum to linear peptides of protein N of SARS-CoV Urbani (Rabbit serum linear peptides) / Binding of a rabbit serum to looped/cyclic peptides of protein N of SARS-CoV Urbani (Rabbit serum looped peptides): unit not given here

| Sequence | Binding of Control Serum Blood-Bank to Looped peptides [1] | Binding of Control serum Blood-bank to linear peptides [1] | Binding of Control serum LUMC to linear peptides [1] | Binding of Control serum LUMC to looped peptides [1] | Binding of a rabbit serum to linear peptides [2] | Binding of a rabbit serum to looped peptides [2] | Rabbit serum linear peptides [2] | Rabbit serum looped peptides [2] | further results |
| --- | --- | --- | --- | --- | --- | --- | --- | --- | --- |
| GVANPAMDPIYDEPT | 0.5 | 0.4 | 0.3 | 0.6 | 0.1 | 0.6 |  |  |  |
| SYYKLGASQRVGTDS |  |  |  |  |  |  | 0.4 | 0.3 | Binding of Control Serum Blood-Bank to Looped peptides of the protein M of SARS-CoV Urbani [1]: 0.8; Binding of Control serum Blood-bank to linear peptides of the protein M of SARS-CoV Urbani [1]: 0.8; Binding of Control serum LUMC to linear peptides of the protein M of SARS-CoV Urbani [1]: 0.4; Binding of Control serum LUMC to looped peptides of the protein M of SARS-CoV Urbani [1]: 0.7 |
| INCQDPAGGALIARC | 0.9 | 1.1 | 0.6 | 0.7 |  |  | 0.5 | 0.6 |  |
| AEILIIIMRTFRIAI |  |  |  |  |  |  | 0.3 | 0.0 | Binding of Control Serum Blood-Bank to Looped peptides of the protein X3 of SARS-CoV Urbani [1]: 0.7; Binding of Control serum Blood-bank to linear peptides of the protein X3 of SARS-CoV Urbani [1]: 0.7; Binding of Control serum LUMC to linear peptides of the protein X3 of SARS-CoV Urbani [1]: 0.4; Binding of Control serum LUMC to looped peptides of the protein X3 of SARS-CoV Urbani [1]: 0.8 |
| KTMSLYMAISPKFTT | 0.7 | 0.7 | 0.6 | 1.0 | 0.3 | 0.8 |  |  |  |
| TVYVYSRVKNLNSSE | 0.7 | 0.5 | 0.3 | 0.9 | 0.8 | 0.3 |  |  |  |
| ANYFVCWHTHNYDYC | 0.5 | 0.7 | 0.7 | 0.6 | 0.1 | 0.5 |  |  |  |
| VYVYSRVKNLNSSEG | 0.8 | 0.5 | 0.8 | 0.8 | 0.3 | 0.4 |  |  |  |
| GGIAIAMACIVGLMW |  |  |  |  |  |  | 0.2 | 0.3 | Binding of Control Serum Blood-Bank to Looped peptides of the protein M of SARS-CoV Urbani [1]: 0.8; Binding of Control serum Blood-bank to linear peptides of the protein M of SARS-CoV Urbani [1]: 0.8; Binding of Control serum LUMC to linear peptides of the protein M of SARS-CoV Urbani [1]: 0.8; Binding of Control serum LUMC to looped peptides of the protein M of SARS-CoV Urbani [1]: 0.9 |
| GDGISTPKLKEDYQI | 0.4 | 0.6 | 0.5 | 0.4 | 0.1 | 0.5 |  |  |  |
| YKLGASQRVGTDSGF |  |  |  |  |  |  | 0.4 | 0.2 | Binding of Control Serum Blood-Bank to Looped peptides of the protein M of SARS-CoV Urbani [1]: 0.7; Binding of Control serum Blood-bank to linear peptides of the protein M of SARS-CoV Urbani [1]: 0.7; Binding of Control serum LUMC to linear peptides of the protein M of SARS-CoV Urbani [1]: 0.4; Binding of Control serum LUMC to looped peptides of the protein M of SARS-CoV Urbani [1]: 0.9 |
| RIGTQVLKTMSLYMA | 0.6 | 0.8 | 0.5 | 0.5 | 0.4 | 0.5 |  |  |  |
| PLTKKNYSELDDEEP |  |  |  |  |  |  | 0.2 | 0.4 | Binding of Control Serum Blood-Bank to Looped peptides of the protein X3 of SARS-CoV Urbani [1]: 0.8; Binding of Control serum Blood-bank to linear peptides of the protein X3 of SARS-CoV Urbani [1]: 0.8; Binding of Control serum LUMC to linear peptides of the protein X3 of SARS-CoV Urbani [1]: 0.9; Binding of Control serum LUMC to looped peptides of the protein X3 of SARS-CoV Urbani [1]: 0.8 |
| IGTQVLKTMSLYMAI | 0.9 | 0.8 | 0.5 | 1.0 | 0.1 | 0.4 |  |  |  |
| TKLVVILRIGTQVLK | 0.6 | 0.7 | 0.5 | 0.7 | 0.3 | 0.6 |  |  |  |
| CWHTHNYDYCIPYNS | 0.6 | 0.6 | 0.7 | 0.6 | 0.1 | 0.7 |  |  |  |

| Sequence | Binding of Control Serum Blood-Bank to Looped peptides [1] | Binding of Control serum Blood-bank to linear peptides [1] | Binding of Control serum LUMC to linear peptides [1] | Binding of Control serum LUMC to looped peptides [1] | Binding of a rabbit serum to linear peptides [2] | Binding of a rabbit serum to looped peptides [2] | Rabbit serum linear peptides [2] | Rabbit serum looped peptides [2] | further results |
| --- | --- | --- | --- | --- | --- | --- | --- | --- | --- |
| YSELDDEEPMELDYP |  |  |  |  |  |  | 0.3 | 0.3 | Binding of Control Serum Blood-Bank to Looped peptides of the protein X3 of SARS-CoV Urbani [1]: 0.8; Binding of Control serum Blood-bank to linear peptides of the protein X3 of SARS-CoV Urbani [1]: 0.7; Binding of Control serum LUMC to linear peptides of the protein X3 of SARS-CoV Urbani [1]: 0.9; Binding of Control serum LUMC to looped peptides of the protein X3 of SARS-CoV Urbani [1]: 0.8 |
| QDPAGGALIARCWYL | 0.8 | 0.7 | 0.3 | 0.6 |  |  | 0.5 | 0.9 |  |
| PFHPLADNKFALTCT | 0.9 | 0.7 | 0.8 | 0.9 |  |  | 0.4 | 0.4 |  |
| LCAYCCNIVNVSLVK | 0.8 | 1.1 | 0.8 | 0.7 | 0.7 | 0.4 |  |  |  |
| KTTKLVVILRIGTQV | 0.7 | 0.4 | 0.5 | 0.7 |  |  |  |  | Recognition of the peptide by the rabbit serum [2]: recognized |
| AQPVKIDNASPASTV | 1.0 | 0.7 | 0.6 | 1.0 | 0.1 | 0.5 |  |  |  |
| FHPLADNKFALTCTS | 0.8 | 0.8 | 0.8 | 0.8 |  |  | 0.4 | 0.2 |  |
| EDYQIGGYSEDRHSG | 0.4 | 0.4 | 0.4 | 0.5 | 0.1 | 0.6 |  |  |  |
| NYKLNTDHAGSNDNI |  |  |  |  |  |  | 0.5 | 0.0 | Binding of Control Serum Blood-Bank to Looped peptides of the protein M of SARS-CoV Urbani [1]: 0.6; Binding of Control serum Blood-bank to linear peptides of the protein M of SARS-CoV Urbani [1]: 0.7; Binding of Control serum LUMC to linear peptides of the protein M of SARS-CoV Urbani [1]: 0.5; Binding of Control serum LUMC to looped peptides of the protein M of SARS-CoV Urbani [1]: 0.8 |
| NSKKTTKLVVILRIG | 0.7 | 0.4 | 0.9 | 0.7 |  |  |  |  | Recognition of the peptide by the rabbit serum [2]: recognized |
| SSIVRQLFKPLTKKN |  |  |  |  |  |  | 0.4 | 0.5 | Binding of Control Serum Blood-Bank to Looped peptides of the protein X3 of SARS-CoV Urbani [1]: 0.8; Binding of Control serum Blood-bank to linear peptides of the protein X3 of SARS-CoV Urbani [1]: 1.2; Binding of Control serum LUMC to linear peptides of the protein X3 of SARS-CoV Urbani [1]: 1.1; Binding of Control serum LUMC to looped peptides of the protein X3 of SARS-CoV Urbani [1]: 0.7 |
| KLVKDPPNVQIHTID | 0.4 | 0.4 | 0.5 | 0.4 | 0.1 | 0.4 |  |  |  |
| KKTTKLVVILRIGTQ | 0.6 | 0.4 | 0.5 | 0.8 |  |  |  |  | Recognition of the peptide by the rabbit serum [2]: recognized |
| HPLGRCDIKDLPKEI |  |  |  |  |  |  | 0.2 | 1.1 | Binding of Control Serum Blood-Bank to Looped peptides of the protein M of SARS-CoV Urbani [1]: 1.0; Binding of Control serum Blood-bank to linear peptides of the protein M of SARS-CoV Urbani [1]: 1.0; Binding of Control serum LUMC to linear peptides of the protein M of SARS-CoV Urbani [1]: 0.7; Binding of Control serum LUMC to looped peptides of the protein M of SARS-CoV Urbani [1]: 0.7 |
| EDRHSGVKDYVVVHG | 1.1 | 0.9 | 0.9 | 0.7 | 0.1 | 0.3 |  |  |  |
